This test has as its target T1, human type 1 glycine transporter (GlyT1) (Homo sapiens, UniProt P48067).
T1 construct: T98G cells (glioma cells) expressing human type 1 glycine transporter (GlyT1) were used
T1 sequence (P48067 1-706): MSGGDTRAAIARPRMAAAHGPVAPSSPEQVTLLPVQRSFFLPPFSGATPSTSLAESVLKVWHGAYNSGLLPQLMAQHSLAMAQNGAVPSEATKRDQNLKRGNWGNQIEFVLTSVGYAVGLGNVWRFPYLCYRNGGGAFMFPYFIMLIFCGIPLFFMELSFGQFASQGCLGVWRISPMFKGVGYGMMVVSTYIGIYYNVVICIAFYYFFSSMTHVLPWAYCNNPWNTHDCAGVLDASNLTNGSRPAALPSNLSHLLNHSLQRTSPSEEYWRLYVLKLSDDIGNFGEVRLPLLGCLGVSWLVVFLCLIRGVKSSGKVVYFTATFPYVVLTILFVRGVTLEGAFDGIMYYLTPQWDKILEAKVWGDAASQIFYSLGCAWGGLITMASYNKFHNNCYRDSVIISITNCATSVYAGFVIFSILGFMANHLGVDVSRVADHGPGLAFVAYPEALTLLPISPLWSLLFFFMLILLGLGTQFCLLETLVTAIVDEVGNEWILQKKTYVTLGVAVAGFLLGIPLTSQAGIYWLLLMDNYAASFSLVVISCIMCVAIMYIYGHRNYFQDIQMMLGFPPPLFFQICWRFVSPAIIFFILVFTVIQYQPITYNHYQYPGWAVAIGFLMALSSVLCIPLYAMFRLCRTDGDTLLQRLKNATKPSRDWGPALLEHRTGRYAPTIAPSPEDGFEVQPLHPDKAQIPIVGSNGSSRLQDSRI
The experiment in a line: Glycine uptake inhibition experiment ([3H]glycine uptake). The note with it: GlyT1. It counts as cell-based. The procedure, abridged: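 T98G glioma cells expressing human GlyT1 were pretreated 10 min with compound in HEPES buffer pH 7.4 (0.2% BSA), then incubated with compound plus 250 nM final [3H]glycine for 15 min at room temperature. Intracellular radioactivity was counted after NaOH lysis; 10 μM ALX5407 defined non-specific uptake. IC50 came from 10^−9–10^−5 M curves.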
`Cc1ccc(Cl)c(C(=O)NC(c2cccc(F)c2Cl)[C@]2(O)CC[C@@H](F)CC2)c1` (single isomer, unassigned) [Compound 294, 2-chloro-N-[(2-chloro-3-fluorophenyl)(cis-4-fluoro-1-hydroxycyclohexyl)methyl]-5-methylbenzamide] displayed an IC50 of 990 nM.

`O=C(NC(c1cccc(F)c1Cl)[C@]1(O)CC[C@@H](F)CC1)c1cc(F)ccc1Cl` (single isomer, unassigned) [Compound 295, 2-chloro-N-[(2-chloro-3-fluorophenyl)(cis-4-fluoro-1-hydroxycyclohexyl)methyl]-5-fluorobenzamide] registered an IC50 of 2100 nM.

Take `CS(=O)(=O)c1ccc(Cl)c(C(=O)NC(c2cccc(F)c2Cl)[C@]2(O)CC[C@@H](F)CC2)c1` (single isomer, unassigned) [Compound 296, 2-chloro-N-[(2-chloro-3-fluorophenyl)(cis-4-fluoro-1-hydroxycyclohexyl)methyl]-5-(methylsuflonyl)benzamide]: the IC50 came out at 3500 nM.

The compound `O=C(NC(c1cccc(F)c1Cl)[C@]1(O)CC[C@@H](F)CC1)c1cc(O)ccc1Cl` (single isomer, unassigned) [Compound 297, 2-chloro-N-[(2-chloro-3-fluorophenyl)(cis-4-fluoro-1-hydroxycyclohexyl)methyl]-5-hydroxybenzamide] yielded an IC50 of 1500 nM.

With `O=C(NC(c1cccc(F)c1Cl)[C@]1(O)CC[C@@H](F)CC1)c1ccc(C(F)(F)F)cc1Cl` (single isomer, unassigned) [Compound 298, 2-chloro-N-[(2-chloro-3-fluorophenyl)(cis-4-fluoro-1-hydroxycyclohexyl)methyl]-4-(trifluoromethyl)benzamide], the IC50 worked out at 410 nM.

Compound `Cc1cccc(Cl)c1C(=O)NC(c1cccc(F)c1Cl)[C@]1(O)CC[C@@H](F)CC1` (single isomer, unassigned) [Compound 299, 2-chloro-N-[(2-chloro-3-fluorophenyl)(cis4-fluoro-1-hydroxycyclohexyl)methyl]-6-methylbenzamide] had an IC50 of 610 nM.

Turning to `COc1cccc(Cl)c1C(=O)NC(c1cccc(F)c1Cl)[C@]1(O)CC[C@@H](F)CC1` (single isomer, unassigned) [Compound 300, 2-chloro-N-[(2-chloro-3-fluorophenyl)(cis-4-fluoro-1-hydroxycyclohexyl)methyl]-6-methoxybenzamide], half-maximal inhibition (IC50) required 1200 nM.

For the compound `O=C(NC(c1cccc(F)c1Cl)[C@]1(O)CC[C@@H](F)CC1)c1c(F)cccc1Cl` (single isomer, unassigned) [Compound 301, 2-chloro-N-[(2-chloro-3-fluorophenyl)(cis-4-fluoro-1-hydroxycyclohexyl)methyl]-6-fluorobenzamide], half-maximal inhibition (IC50) was put at 1100 nM.

On to `O=C(NC(c1cccc(F)c1Cl)[C@]1(O)CC[C@@H](F)CC1)c1nccnc1Cl` (single isomer, unassigned) [Compound 302, 3-chloro-N-[(2-chloro-3-fluorophenyl)(cis-4-fluoro-1-hydroxycyclohexyl)methyl]pyrazine-2-carboxamide], for which the IC50 amounted to 5500 nM.

`O=C(NC(c1ncccc1Cl)[C@]1(O)CC[C@@H](F)CC1)c1nccc(C(F)(F)F)c1Cl` (single isomer, unassigned) [Compound 303, 3-chloro-N-[(3-chloropyridin-2-yl)(cis-4-fluoro-1-hydroxycyclohexyl)methyl]-4-(trifluoromethyl)pyridine-2-carboxmaide] yielded an IC50 of 4000 nM.

With `O=C(NC(c1cccc(F)c1Cl)[C@]1(O)CC[C@@H](F)CC1)c1ccc(C(F)(F)F)nc1Cl` (single isomer, unassigned) [Compound 304, 2-chloro-N-[[2-chloro-3-fluorophenyl)(cis-4-fluoro-1-hydroxycyclohexyl)methyl]-6-(trifluoromethyl)pyridine-3-carboxamide], the IC50 was 290 nM.

Compound `O=C(NC(c1cccc(F)c1Cl)[C@]1(O)CC[C@@H](F)CC1)c1cc(Cl)nnc1Cl` (single isomer, unassigned) [Compound 305, 3,6-dichloro-N-[(2-chloro-3-fluorophenyl)(cis-4-fluoro-1-hydroxycyclohexyl)methyl]pyridazine-4-carboxamide] yielded a half-maximal inhibitory concentration (IC50) of 1000 nM.

In turn, `O=C(NC(c1cccc(F)c1Cl)[C@]1(O)CC[C@@H](F)CC1)c1c(Cl)cccc1C(F)(F)F` (single isomer, unassigned) [Compound 306, 2-chloro-N-[(2-chloro-3-fluorophenyl)(cis-4-fluoro-1-hydroxycyclohexyl)methyl]-6-(trifluoromethyl)benzamide] showed an IC50 of 670 nM.

`O=C(NC(c1cccc(F)c1Cl)[C@]1(O)CC[C@@H](F)CC1)c1ccc(F)cc1Cl` (single isomer, unassigned) [Compound 307, 2-chloro-N-[(2-chloro-3-fluorophenyl)(cis-4-fluoro-1-hydroxycyclohexyl)methyl]-4-fluorobenzamide] had an IC50 of 1300 nM.

Compound `O=C(NC(c1cnccc1Cl)[C@]1(O)CC[C@@H](F)CC1)c1nccc(C(F)(F)F)c1Cl` (single isomer, unassigned) [Compound 308, 3-chloro-N-[(4-chloropyridin-3-yl)(cis-4-fluoro-1-hydroxycyclohexyl)methyl]-4-(trifluoromethyl)pyridine-2-carboxamide] gave a half-maximal inhibitory concentration (IC50) of 380 nM.

Compound `O=C(NC(c1cccc(Cl)n1)[C@]1(O)CC[C@@H](F)CC1)c1cc(C(F)(F)F)ncc1Cl` (single isomer, unassigned) [Compound 309, 5-chloro-N-[(6-chloropyridin-2-yl)(cis-4-fluoro-1-hydroxycyclohexyl)methyl]-2-(trifluoromethyl)pyridine-4-carboxamide] had an IC50 of 550 nM.

For `O=C(NC(c1cccc(Cl)n1)[C@]1(O)CC[C@@H](F)CC1)c1nccc2ccccc12` (single isomer, unassigned) [Compound 310, N-[(6-chloropyridin-2-yl)(cis-4-fluoro-1-hydroxycyclohexyl)methyl]isoquinoline-1-carboxamide], half-maximal inhibition (IC50) required 550 nM.

Compound `O=C(NC(c1cccc(Cl)n1)C1(O)CCC(F)(F)CC1)c1nccc(C(F)(F)F)c1Cl` (single isomer, unassigned) [Compound 311, 3-chloro-N-[(6-chloropyridin-2-yl)(4,4-difluoro-1-hydroxycyclohexyl)methyl]-4-(trifluoromethyl)pyridine-2-carboxamide] displayed an IC50 of 77 nM.

With `O=C(NC(c1cccc(F)c1Cl)[C@]1(O)CC[C@@H](F)CC1)c1cccc(Cl)c1C(F)(F)F` (single isomer, unassigned) [Compound 312, 3-chloro-N-[(2-chloro-3-fluorophenyl)(cis-4-fluoro-1-hydroxycyclohexyl)methyl]-2-(trifluoromethyl)benzamide], the IC50 was 890 nM.

As for `O=C(NC(c1cccc(F)c1Cl)[C@]1(O)CC[C@@H](F)CC1)c1ccc(Cl)cc1C(F)(F)F` (single isomer, unassigned) [Compound 313, 4-chloro-N-[(2-chloro-3-fluorophenyl)(cis-4-fluoro-1-hydroxycyclohexyl)methyl]-2-(trifluoromethyl)benzamide], half-maximal inhibition (IC50) required 6400 nM.

`O=C(NC(c1cccc(F)c1Cl)[C@]1(O)CC[C@@H](F)CC1)c1cc(Cl)ccc1C(F)(F)F` (single isomer, unassigned) [Compound 314, 5-chloro-N-[(2-chloro-3-fluorophenyl)(cis-4-fluoro-1-hydroxycyclohexyl)methyl]-2-(trifluoromethyl)benzamide] had an IC50 of 420 nM.

In turn, `Cc1ccc(C(F)(F)F)c(C(=O)NC(c2cccc(F)c2Cl)[C@]2(O)CC[C@@H](F)CC2)n1` (single isomer, unassigned) [Compound 315, N-[(2-chloro-3-fluorophenyl)(cis-4-fluoro-1-hydroxycyclohexyl)methyl]-6-methyl-3-(trifluoromethyl)pyridine-2-carboxamide] showed an IC50 of 820 nM.

On to `O=C(NC(c1cccc(F)c1Cl)[C@]1(O)CC[C@@H](F)CC1)c1ncc(Cl)cc1C(F)(F)F` (single isomer, unassigned) [Compound 316, 5-chloro-N-[(2-chloro-3-fluorophenyl)(cis-4-fluoro-1-hydroxycyclohexyl)methyl]-3-(trifluoromethyl)pyridine-2-carboxamide], for which the IC50 is 5800 nM.

With `O=C(NC(c1cccc(F)c1Cl)[C@]1(O)CC[C@@H](F)CC1)c1cc(C(F)(F)F)cnc1Cl` (single isomer, unassigned) [Compound 317, 2-chloro-N-[(2-chloro-3-fluorophenyl)(cis-4-fluoro-1-hydroxycyclohexyl)methyl]-5-(trifluoromethyl)pyridine-3-carboxamide], the IC50 came out at 150 nM.
